Each structure is given as a SMILES string. Like-named read-outs stand apart in the source and are kept apart here. A value given as a limit tells only on which side of the number the result lay.

The assay has as its target soluble guanylate cyclase (sGC) (Homo sapiens (Human), UniProt Q02108+Q02153). The assay can be described thus: sGC-HEK-cGMP assay with SNP incubation, LC/MS detection (Example 2A). The assay is classed as cell-based. As to conditions: HEK293 cells, 10 μM SNP, LC/MS detection; for Emax: 100% = BAY 41-2272 at 10 μM, read-out: HEK assay Emax - unconstrained (%). Here is the method:
Human embryonic kidney cells (HEK293), endogenously expressing soluble guanylate cyclase (sGC), were used to evaluate the activity of test compounds. Compounds stimulating the sGC receptor should cause an increase in the intracellular concentration of cGMP. HEK 293 cells were seeded in Dulbecco's Modification of Eagle's Medium supplemented with fetal bovine serum (10% final) and L-glutamine (2 mM final) in a 200 L volume at a density of 1×10^5 cells/well in a poly-D-lysine coated 96 well flat bottom plate and grown overnight at 37° C. Medium was aspirated and cells were washed with 1× Hank's Buffered Saline Salt Solution (200 μL). Cells were then incubated for 15 minutes at 37° C. with 200 μL of a 0.5 mM 3-isobutyl-1-methylxanthine (IBMX) solution. Test article and sodium nitroprusside solutions (x μM concentration for test article solution and 10 μM concentration for SNP solution; wherein x is one of the following concentrations: 30 μM, 10 μM, 3 μM, 1 μM, 0.3 μM, 0.1 μM, 0.03 μM, 0.01 μM, 0.003 μM, 0.001 μM, 0.0003 μM or 0.0001 μM) were then added to the assay mixture (2 μL each) and the resulting mixture incubated at 37° C. for 10 minutes. After the 10 minute incubation, the assay mixture was aspirated and 0.1M HCl (200 μL) was added to the cells. The plate was incubated at 4° C. for 30 minutes in the 0.1M HCl to stop the reaction and lyse the cells. The plates were then centrifuged at 1,200 g for 5 minutes at room temperature. Supernatants were collected and transferred to a new flat bottom 96 well plate for analysis by HPLC-MS. Vehicle controls were carried out using DMSO (1%) solutions. A known sGC stimulator, BAY 41-2272, was used as the positive control. Samples were diluted with an equal volume of 1 M Ammonium Acetate (pH 7) to neutralize samples for better chromatography. A 2× cGMP standard solution was prepared in 0.1 M HCl and then diluted with an equal volume of 1 M Ammonium Acetate, with the following final concentrations in nM: 1024, 512, 256, 128, 64, 32, 16, 8, 4, 2, 1. cGMP concentrations in the test plates were determined from each sample using the LC/MS conditions shown in Table 2 below and the calculated cGMP standard curve. EC50 values were calculated from concentration-response curves generated with GraphPad Prism Software. Data were normalized to a high control using the following equation: 100*(Sample−Low Control)/(High Control−Low Control), where the low control is the average of 6 samples treated with 1% DMSO, and the high control is the average of 8-12 samples treated with 10 uM BAY 41-2272. Data were fit using a non-linear regression, sigmoidal dose response, 3 parameter fits.

Setting [1] is: top of curve fitted to 100%, read-out: HEK assay EC50 - constrained.
Setting [2] is: top of curve not fitted to 100%, read-out: HEK assay EC50 - unconstrained.

soluble guanylate cyclase (sGC), sequence (Q02153 whole entry): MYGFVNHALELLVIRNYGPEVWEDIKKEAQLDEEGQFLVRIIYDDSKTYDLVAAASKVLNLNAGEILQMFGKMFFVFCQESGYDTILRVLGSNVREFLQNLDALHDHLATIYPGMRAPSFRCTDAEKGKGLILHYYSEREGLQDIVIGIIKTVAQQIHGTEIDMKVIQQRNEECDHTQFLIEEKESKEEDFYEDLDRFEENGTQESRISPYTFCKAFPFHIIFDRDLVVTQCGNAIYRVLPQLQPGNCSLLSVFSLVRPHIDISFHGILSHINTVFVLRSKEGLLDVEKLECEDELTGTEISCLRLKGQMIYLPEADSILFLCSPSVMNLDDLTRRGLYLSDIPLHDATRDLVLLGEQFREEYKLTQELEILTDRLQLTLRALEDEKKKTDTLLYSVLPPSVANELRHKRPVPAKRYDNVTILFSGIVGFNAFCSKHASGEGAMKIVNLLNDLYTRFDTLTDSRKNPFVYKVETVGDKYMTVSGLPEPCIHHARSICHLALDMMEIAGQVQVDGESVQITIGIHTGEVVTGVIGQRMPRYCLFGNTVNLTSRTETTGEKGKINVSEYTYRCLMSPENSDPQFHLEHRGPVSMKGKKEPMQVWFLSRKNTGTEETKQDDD
soluble guanylate cyclase (sGC), sequence (Q02108 whole entry): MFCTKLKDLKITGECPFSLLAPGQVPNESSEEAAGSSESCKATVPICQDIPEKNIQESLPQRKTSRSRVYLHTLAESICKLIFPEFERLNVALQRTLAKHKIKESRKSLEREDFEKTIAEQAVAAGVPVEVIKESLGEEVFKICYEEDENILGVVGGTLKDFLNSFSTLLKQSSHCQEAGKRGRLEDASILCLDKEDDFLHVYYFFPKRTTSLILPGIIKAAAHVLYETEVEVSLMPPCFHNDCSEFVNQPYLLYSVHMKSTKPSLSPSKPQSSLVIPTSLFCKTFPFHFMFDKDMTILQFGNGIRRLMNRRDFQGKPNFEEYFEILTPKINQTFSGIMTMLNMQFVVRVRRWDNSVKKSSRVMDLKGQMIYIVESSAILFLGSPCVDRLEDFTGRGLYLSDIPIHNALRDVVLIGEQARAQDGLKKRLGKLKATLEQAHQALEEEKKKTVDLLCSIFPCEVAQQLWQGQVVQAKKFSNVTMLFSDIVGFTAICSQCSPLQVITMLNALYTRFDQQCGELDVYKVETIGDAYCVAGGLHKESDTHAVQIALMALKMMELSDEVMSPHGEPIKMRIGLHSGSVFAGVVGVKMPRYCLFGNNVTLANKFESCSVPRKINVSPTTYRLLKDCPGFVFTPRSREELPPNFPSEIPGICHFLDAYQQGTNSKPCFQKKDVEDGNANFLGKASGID

Take `O=C(O)[C@@H](Cc1ccc(O)cc1)Nc1nc(-c2cc(-c3ccon3)n(Cc3ccccc3F)n2)ncc1F` [Compound I-165]: the EC50 (commonly the concentration needed to bring the measured effect to its halfway point) under setting [1] is more than 10000 nM. `CCOC(=O)CN(Cc1ccccc1)c1nc(-c2cc(-c3ccon3)n(Cc3ccccc3F)n2)ncc1F` [Compound I-166]: the Emax (usually the maximal effect, on the per cent scale that the assay sets) was in the range of 40 to 60%. In addition, the EC50 under setting [2] lay within 100 to 500 nM. Take `CCOC(=O)CN(C)c1nc(-c2cc(-c3ccon3)n(Cc3ccccc3F)n2)ncc1F` [Compound I-167]: the Emax lay in the range of 80 to 100%. Further, the EC50 under setting [2] lay in the range of 1 to 100 nM. For the compound `O=C(O)CN(Cc1ccccc1)c1nc(-c2cc(-c3ccon3)n(Cc3ccccc3F)n2)ncc1F` [Compound I-168], the Emax was 60 to 80%. Further, under setting [2], the EC50 is 100 to 500 nM. In the same order, the values of `CN(CCC(=O)O)c1nc(-c2cc(-c3ccon3)n(Cc3ccccc3F)n2)ncc1F` [Compound I-169] are 60 to 80% and 100 to 500 nM. On to `CC(CN(C)c1nc(-c2cc(-c3ccon3)n(Cc3ccccc3F)n2)ncc1F)C(=O)O` (centres unmarked) [Compound I-170], for which the Emax was in the range of 60 to 80%. For the same compound, under setting [2], the EC50 lay within 100 to 500 nM. For the compound `CC(C)[C@H](CNc1nc(-c2cc(-c3ccon3)n(Cc3ccccc3F)n2)ncc1F)C(=O)O` [Compound I-171], the Emax was in the range of 60 to 80%. The EC50 under setting [2] is 1 to 100 nM. Turning to `COc1nc(-c2cc(-c3ccon3)n(Cc3ccccc3F)n2)nc(N2CCOCC2)c1F` [Compound I-172], the EC50 under setting [1] was more than 10000 nM.

As to `CC(C)[C@@H](CNc1nc(-c2cc(-c3ccon3)n(Cc3ccccc3F)n2)ncc1F)C(=O)O` [Compound I-173], the Emax lay in the range of 60 to 80%. Further, under setting [2], the EC50 is 100 to 500 nM. In the same order, the values of `O=C(O)CCNc1nc(-c2cc(-c3ccon3)n(Cc3ccccc3F)n2)ncc1F` [Compound I-174] are 60 to 80% and 500 to 1000 nM. In the same order, the values of `CS(=O)(=O)C1CCN(c2nc(-c3cc(-c4ccon4)n(Cc4ccccc4F)n3)ncc2F)CC1` [Compound I-175] are 100 to 120% and 1 to 100 nM. Consider `CN(CC(=O)O)c1nc(-c2cc(-c3ccon3)n(Cc3ccccc3F)n2)ncc1F` [Compound I-176], for which the Emax fell in the range of 40 to 60%. The EC50 under setting [2] fell in the range of 1000 to 5000 nM. Consider `CC(=O)NS(=O)(=O)N1CCN(c2nc(-c3cc(-c4ccon4)n(Cc4ccccc4F)n3)ncc2F)CC1` [Compound I-177], for which the Emax was in the range of 60 to 80%. Also, the EC50 under setting [2] is 100 to 500 nM. In the case of `CS(=O)(=O)CCC(Nc1nc(-c2cc(-c3ccon3)n(Cc3ccccc3F)n2)ncc1F)C(=O)O` (centres unmarked) [Compound I-178], the Emax was 40 to 60%. Moreover, under setting [2], the EC50 was in the range of 5000 to 10000 nM. Consider `O=C(O)[C@H]1CC[C@@H](Nc2nc(-c3cc(-c4ccon4)n(Cc4ccccc4F)n3)ncc2F)C1` [Compound I-179], for which the Emax lay in the range of 80 to 100%. Besides, the EC50 under setting [2] lay within 100 to 500 nM. For the compound `O=C(O)C(CC(F)(F)F)Nc1nc(-c2cc(-c3ccon3)n(Cc3ccccc3F)n2)ncc1F` (centres unmarked) [Compound I-180], the Emax is 80 to 100%. For the same compound, under setting [2], the EC50 lay within 1000 to 5000 nM. For `CC(C)[C@@H](CC(=O)O)Nc1nc(-c2cc(-c3ccon3)n(Cc3ccccc3F)n2)ncc1F` [Compound I-181], the Emax lay in the range of 100 to 120%. The EC50 under setting [2] fell in the range of 500 to 1000 nM. For `CC(C)[C@H](CC(=O)O)Nc1nc(-c2cc(-c3ccon3)n(Cc3ccccc3F)n2)ncc1F` [Compound I-182], the maximum response (Emax) lay in the range of 80 to 100%. Also, under setting [2], the EC50 lay within 1 to 100 nM. On to `CC(C)(C)OC(=O)N1CCCN1c1nc(-c2cc(-c3ccon3)n(Cc3ccccc3F)n2)ncc1F` [Compound I-183], for which the Emax is 60 to 80%. Moreover, under setting [2], the EC50 was 100 to 500 nM. For `CC(C)(C)OC(=O)N1CCN(c2nc(-c3cc(-c4ccon4)n(Cc4ccccc4F)n3)ncc2F)C(CO)C1` (centres unmarked) [Compound I-184], the Emax fell in the range of 80 to 100%. Also, the EC50 under setting [2] fell in the range of 500 to 1000 nM. In the same order, the values of `CCC1(C(=O)O)CCN(c2nc(-c3cc(-c4ccon4)n(Cc4ccccc4F)n3)ncc2F)CC1` [Compound I-189] are 60 to 80% and 100 to 500 nM.

`CC1CN(c2nc(-c3cc(-c4ccon4)n(Cc4ccccc4F)n3)ncc2F)CCC1C(=O)O` (centres unmarked) [Compound I-190]: the Emax was in the range of 60 to 80%. The EC50 under setting [2] is 1000 to 5000 nM.

In the case of `Fc1ccccc1Cn1nc(-c2ncc(F)c(N3CCCN3)n2)cc1-c1ccon1` [Compound I-193], the Emax is 60 to 80%. Moreover, the EC50 under setting [2] is 1000 to 5000 nM. In the same order, the values of `O=C(O)C1(CNc2nc(-c3cc(-c4ccon4)n(Cc4ccccc4F)n3)ncc2F)CCOCC1` [Compound I-194] are 80 to 100% and 100 to 500 nM. With `CC(C)C(CC(=O)O)N(C)c1nc(-c2cc(-c3ccon3)n(Cc3ccccc3F)n2)ncc1F` (centres unmarked) [Compound I-195], the Emax was in the range of 60 to 80%. For the same compound, the EC50 under setting [2] was 1 to 100 nM. Regarding `CNc1nc(-c2cc(-c3ccon3)n(Cc3ccccc3F)n2)ncc1F` [Compound I-196], the Emax lay in the range of 80 to 100%.

With `O=C(O)COC1CCN(c2nc(-c3cc(-c4ccon4)n(Cc4ccccc4F)n3)ncc2F)CC1` [Compound I-197], the Emax is 80 to 100%. For the same compound, under setting [2], the EC50 fell in the range of 1000 to 5000 nM.

For `CSCCC(Nc1nc(-c2cc(-c3ccon3)n(Cc3ccccc3F)n2)ncc1F)C(=O)O` (centres unmarked) [Compound I-199], the Emax is 60 to 80%. Further, the EC50 under setting [2] fell in the range of 5000 to 10000 nM. Regarding `CCOC(=O)CN(CC1CC1)c1nc(-c2cc(-c3ccon3)n(Cc3ccccc3F)n2)ncc1F` [Compound I-201], the Emax is 100 to 120%. Under setting [2], the EC50 was in the range of 100 to 500 nM.

Take `CC(C)[C@@H](CC(=O)O)N(C)c1nc(-c2cc(-c3ccon3)n(Cc3ccccc3F)n2)ncc1F` [Compound I-202]: the Emax fell in the range of 80 to 100%. Further, the EC50 under setting [2] was in the range of 100 to 500 nM. In the same order, the values of `O=C(O)CN(CC1CC1)c1nc(-c2cc(-c3ccon3)n(Cc3ccccc3F)n2)ncc1F` [Compound I-203] are 40 to 60% and 100 to 500 nM. With `CCOC(=O)CN(CC(C)C)c1nc(-c2cc(-c3ccon3)n(Cc3ccccc3F)n2)ncc1F` [Compound I-205], the Emax is 60 to 80%. Also, under setting [2], the EC50 was 500 to 1000 nM.

Turning to `C[C@@H](C(=O)O)N(C)c1nc(-c2cc(-c3ccon3)n(Cc3ccccc3F)n2)ncc1F` [Compound I-207], the Emax was 100 to 120%. Under setting [2], the EC50 was 500 to 1000 nM.

On to `O=C(O)C12CCCC1CN(c1nc(-c3cc(-c4ccon4)n(Cc4ccccc4F)n3)ncc1F)C2` (centres unmarked) [Compound I-208], for which the Emax fell in the range of 80 to 100%. For the same compound, under setting [2], the EC50 was 1 to 100 nM. Consider `CC(C)CN(CC(=O)O)c1nc(-c2cc(-c3ccon3)n(Cc3ccccc3F)n2)ncc1F` [Compound I-209], for which the Emax was 80 to 100%. In addition, the EC50 under setting [2] is 500 to 1000 nM. In the same order, the values of `O=C(O)C1(CNc2nc(-c3cc(-c4ccon4)n(Cc4ccccc4F)n3)ncc2F)CC1` [Compound I-210] are 100 to 120% and 1 to 100 nM. As for `OCC1CNCCN1c1nc(-c2cc(-c3ccon3)n(Cc3ccccc3F)n2)ncc1F` (centres unmarked) [Compound I-211], the Emax is more than 120%. For the same compound, the EC50 under setting [2] is 1000 to 5000 nM. With `O=C(N1CCN(c2nc(-c3cc(-c4ccon4)n(Cc4ccccc4F)n3)ncc2F)C(CO)C1)C(F)(F)F` (centres unmarked) [Compound I-212], the Emax is more than 120%. Also, under setting [2], the EC50 lay within 500 to 1000 nM.

For `CN(CCCC(=O)O)c1nc(-c2cc(-c3ccon3)n(Cc3ccccc3F)n2)ncc1F` [Compound I-215], the Emax was 40 to 60%. Further, the EC50 under setting [2] is 1000 to 5000 nM. Regarding `O=C(O)CN1CCCN1c1nc(-c2cc(-c3ccon3)n(Cc3ccccc3F)n2)ncc1F` [Compound I-216], the Emax fell in the range of 40 to 60%. In addition, under setting [2], the EC50 lay in the range of 100 to 500 nM. In the same order, the values of `CCC(CC)(CNc1nc(-c2cc(-c3ccon3)n(Cc3ccccc3F)n2)ncc1F)C(=O)O` [Compound I-217] are 60 to 80% and 100 to 500 nM.

Regarding `CONC(=O)CN(C)c1nc(-c2cc(-c3ccon3)n(Cc3ccccc3F)n2)ncc1F` [Compound I-218], the Emax was 40 to 60%. Moreover, the EC50 under setting [2] lay within 1000 to 5000 nM. With `Cc1noc(CN(C)c2nc(-c3cc(-c4ccon4)n(Cc4ccccc4F)n3)ncc2F)n1` [Compound I-223], the Emax fell in the range of 40 to 60%. In addition, the EC50 under setting [2] was in the range of 1000 to 5000 nM.

Source of the values: patent publication US10183021B2, “sGC stimulators” (Ironwood Pharmaceuticals, Inc., priority 2013, dated 2019).
